From US4563479A, “Synergistic radiation protective pharmaceutical compositions” (Chinoin Gyogyszer es Vegyeszeti Termekek Gyar RT, priority 1979, dated 1986)
Where a name gives a salt, the structure may show the parent alone. Read-outs that look alike come from different tables or passages of the source.

Experiments:
[1] = test system: mice; test: Survival and survival coefficient "S" of irradiated mice (X-ray or 60Co gamma), Tables 2-4; format: in vivo; details: 140 mg/kg AET alone i.p.
Description: Experiments are carried out in mice. Irradiation was carried out with X-ray (rtg) and with gamma rays obtained from ^60 Co isotope. Survival was observed on the 30th day after irradiation and expressed by using survival coefficient "S" according to Kaluszyner. […] Mice were treated intraperitoneally.

[2] = cited from earlier work
[3] = cited from earlier work; remark: listed apart in the source

Compound: N=C(N)SCCN [AET, aminoethyl-isothiuronium-chloride-hydrochloride]
- Survival % ([1]; X-ray (rtg) 630 R): 15%
- Survival coefficient "S" ([1]; X-ray (rtg) 630 R): 0.39
- Survival % ([1]; X-ray (rtg) 800 R): 0%
- Survival coefficient "S" ([1]; X-ray (rtg) 800 R): 0.27
- Survival % ([1]; gamma 900 rad): 5%
- Survival coefficient "S" ([1]; gamma 900 rad): 0.37
- Survival % ([1]; gamma 1100 rad): 0%
- Survival coefficient "S" ([1]; gamma 1100 rad): 0.28
- LD50 p.o. ([2]; listed as aminoethyl-isothiuronium-chloride-hydrochloride): 710 mg/kg

Compound: N=C(N)SCCN [aminoethyl-isothiuronium-bromide-hydrobromide]
- LD50 p.o. [2]: 1200 mg/kg

Compound: Cl.N[C@@H](CS)C(=O)O [cysteine-hydrochloride]
- Radiation protective dose ([3]; in vivo): 1900 mg/kg

Compound: N=C(N)NCCS [mercaptoethyl-guanidine]
- Therapeutic index ([3]; LD50 p.o. / radiation protective dose): 1.75
- LD50 p.o. [2]: 350 mg/kg
